In patent publication US8952222B2, “Herbicide resistant sunflower plants derived from RW-B cultivar” (Anglo Netherlands Grain B.V., priority 2008, dated 2015):
Where “and” joins values, the source holds several entries; their conditions need not be identical. Equal entries are not always repeated. Marks after values point to notes of the source that are not given here.

Key:
Type in all cases: in vivo
[1] = system: sunflower line RW-B; assay: Whole plant dose response to imazapyr; conditions: from 4x to 10x rates of herbicide application, 14 DAT
Method: (§1) Seeds were sown in Petri dishes and, after germination; plantlets were transplanted to pots of 10 cm of diameter in a potting media consisting of equal parts of vermiculite, soil and sand. Plants were grown in a greenhouse under natural light conditions supplemented with 400 W sodium halide lamps to provide a 16 hr day-length. Day/night temperatures were 25 and 20° C., respectively. At the V2-V4 stage (Schneiter & Miller, 1981) 10 plants of each genotype were randomly assigned to each treatment consisting of eight imazapyr doses (0, 40, 80, 160, 320, 480, 640 and 800 g ai/ha, without treatment, 0.5×, 1×, 2×, 4×, 6×, 8× and 10× respectively), and a zero-time biomass determination. Experiment was arranged as a randomized block design with a full factorial (sunflower line x treatment) arrangement of treatments and 10 replications.
(§2) On the day of herbicide application ten plants of each genotype were cut at the cotyledonal node and dried at 60° C. for 48 hrs for zero-time dried weight determination.
(§3) The remaining plants were maintained for 14 days after imazapyr treatment (DAT) and their height, Phytotoxicity Index (PI) and above ground dry biomass were determined. Height was determined as the distance between the cotyledonal node and the apex of each plant. Above ground biomass data from each line were converted to biomass accumulation after application by subtracting the appropriate average zero-time biomass from each sample. Dry biomass data were converted to percentages of the untreated control plants within each line to allow direct comparisons between groups. […] Plants without any symptoms were recorded as “0”, increasing levels of stunting and chlorosis with respect to the untreated control plants were recorded as “1” to “4”, increasing levels of leaf abnormalities and leaf necrosis were recorded from “5” to “8”, and dead plants with total necrosis of the apex were recorded as “9”.

[2] = system: sunflower line B770; assay: Whole plant dose response to imazapyr; conditions: line B770 (WT-Susceptible), 14 DAT; for Dry weight (as a % of the untreated plants): above ground biomass; for Phytotoxicity Index: scale 0-9
Method: as §1, §2, §3

[3] = system: sunflower line B770; assay: Greenhouse spray with imazapyr, visual inspection for injury; conditions: imazapyr 80 gr ai/ha, two weeks after treatment
Method: (§4) 300 seeds of a wild sunflower population known to be tolerant to IMIs were sown under greenhouse conditions at Nidera Experimental Station in Venado Tuerto, Santa Fe, Argentina, together with the control lines HA89, B770 (Susceptible—[…]), BTI-M1 and RHA426 (Resistant—“R”). At the V4 stage all the plants were sprayed with imazapyr at a rate of 80 gr ai/ha. Two weeks after treatment, all the plants were evaluated by visual inspection for injury. S lines HA89 and B770 were killed by the treatment. […] In total, […] plants of the wild population resisted the herbicide treatment and 129 were killed (categorized as S).
One R plant (RW-73) was used as male in crosses with the cultivated susceptible lines HA89 and B770. Ten to 20 F1 plants from each cross were sprayed with imazapyr at a rate of 80 gr ai/ha, using B770 (S) and BTI-M1 (R) as controls. […] However, imazapyr treatment killed the B770 plants.

[4] = system: sunflower line RHA426; assay: Allelism test, challenge with imazapyr; conditions: control line RHA426; imazapyr 320 g a.i. ha-1 at V2-V4
Source text: RW-B plants were crossed with RHA426 in order to determine if the resistant gene in RW-B is allelic to Imr1, the mutation previously described in imidazolinone resistant inbred lines. In this cross, F1 hybrids plants were self pollinated and backcrossed to RHA426 to obtain the F2 and BC1F1 generations, respectively. Plants from the parents and from F1, F2 and BC were challenged with 160 g a.i. ha^−1 and 320 g a.i. ha^−1 of imazapyr at the V2-V4 stage. Post challenge, plants were scored as described above.
On the other hand, when F2 and BC populations were scored after applying herbicide at the higher rate (320 g a.i. ha^−1), segregation for susceptibility could be observed. Only two phenotypic classes were detected, a resistant class composed of plants that were without any sign of injury or only slight symptoms, and a susceptible phenotype that was killed at this dose in much the same way as the control line RHA426.

[5] = system: sunflower line BTI-M1; assay: Greenhouse spray with imazapyr, visual inspection for injury; conditions: imazapyr 80 gr ai/ha at V4, two weeks after treatment
Method: as §4

[6] = system: sunflower line RHA426; assay: as above; conditions: imazapyr 80 gr ai/ha at V4, two weeks after treatment
Method: as §4

[7] = system: sunflower line HA89; assay: as above; conditions: imazapyr 80 gr ai/ha at V4, two weeks after treatment
Method: as §4

[8] = system: sunflower line SuBL; assay: Whole plant dose response to metsulfuron; conditions: line SuBL (P197L), 14 DAT; for Dry weight (as a % of the untreated plants): above ground biomass; for Phytotoxicity Index: scale 0-9
Method: (§5) Seeds were sown in Petri dishes and, after germination, plantlets were transplanted to pots of 10 cm of diameter in a potting media consisting of equal parts of vermiculite, soil and sand. Plants were grown in a greenhouse under natural light conditions supplemented with 400 W sodium halide lamps to provide a 16 hr daylight. Day/night temperatures were 25 and 20° C., respectively. […] Experiment was arranged as a randomized block design with a full factorial (sunflower line x treatment) arrangement of treatments and 10 replications.
as §2
(§6) […] Above ground biomass data from each line were converted to biomass accumulation after application by subtracting the appropriate average zero-time biomass from each sample. Dry biomass data were converted to percentages of the untreated control plants within each line to allow direct comparisons between groups. […] Plants without any symptoms were recorded as “0”, increasing levels of stunting and chlorosis with respect to the untreated control plants were recorded as “1” to “4”, increasing levels of leaf abnormalities and leaf necrosis were recorded from “5” to “8”, and dead plants with total necrosis of the apex were recorded as “9”.

[9] = system: sunflower line RW-B; assay: Whole plant dose response to metsulfuron; conditions: line RW-B (W574L), 14 DAT; for Dry weight (as a % of the untreated plants): above ground biomass; for Phytotoxicity Index: scale 0-9
Method: as §5, §2, §6

[10] = system: sunflower line B770imi; assay: Whole plant dose response to metsulfuron; conditions: line B770IMI (A205V), 14 DAT; for Dry weight (as a % of the untreated plants): above ground biomass; for Phytotoxicity Index: scale 0-9
Method: as §5, §2, §6

[11] = system: sunflower line B770; assay: Whole plant dose response to metsulfuron; conditions: 14 DAT; for Dry weight (as a % of the untreated plants): above ground biomass, line Suscp; for Phytotoxicity Index: line B770 (WT-Susceptible), scale 0-9

CC(C)C1(C)N=C(c2ncccc2C(=O)O)NC1=O (stereo not drawn) [imazapyr]
height, % of the untreated control plants [1]: 75%
Dry weight (as a % of the untreated plants) ([2]; imazapyr 0.5x = 40 g ai/ha): 32.7^d %
Dry weight (as a % of the untreated plants) ([2]; imazapyr 1x = 80 g ai/ha): 30.2^d %
Dry weight (as a % of the untreated plants) ([2]; imazapyr 2x = 160 g ai/ha): 27.6^d %
Dry weight (as a % of the untreated plants) ([2]; imazapyr 4x = 320 g ai/ha): 26.5^d %
Dry weight (as a % of the untreated plants) ([2]; imazapyr 6x = 480 g ai/ha): 25.9^d %
Dry weight (as a % of the untreated plants) ([2]; imazapyr 8x = 640 g ai/ha): 25.7^d %
Dry weight (as a % of the untreated plants) ([2]; imazapyr 10x = 800 g ai/ha): 25.2^d %
Height (as % of the untreated plants) ([2]; imazapyr 0.5x = 40 g ai/ha): 35.0% and 35.0^c %
Phytotoxicity Index ([2]; imazapyr 0.5x = 40 g ai/ha): 8.9^a
Height (as % of the untreated plants) ([2]; imazapyr 1x = 80 g ai/ha): 31.8^c %
Phytotoxicity Index ([2]; imazapyr 1x = 80 g ai/ha): 9^a
Height (as % of the untreated plants) ([2]; imazapyr 2x = 160 g ai/ha): 31.9^d %
Phytotoxicity Index ([2]; imazapyr 2x = 160 g ai/ha): 9^a
Height (as % of the untreated plants) ([2]; imazapyr 4x = 320 g ai/ha): 31.9^d %
Phytotoxicity Index ([2]; imazapyr 4x = 320 g ai/ha): 9^a
Height (as % of the untreated plants) ([2]; imazapyr 6x = 480 g ai/ha): 31.6^d %
Phytotoxicity Index ([2]; imazapyr 6x = 480 g ai/ha): 9^a
Height (as % of the untreated plants) ([2]; imazapyr 8x = 640 g ai/ha): 31.7^d %
Phytotoxicity Index ([2]; imazapyr 8x = 640 g ai/ha): 9^a
Height (as % of the untreated plants) ([2]; imazapyr 10x = 800 g ai/ha): 31.4^c %
Phytotoxicity Index ([2]; imazapyr 10x = 800 g ai/ha): 9^a
injury by visual inspection [3]: killed
response to imazapyr [4]: killed
injury by visual inspection [5]: did not present any signs of damage
injury by visual inspection [6]: signs of chlorosis
injury by visual inspection [7]: killed

COc1nc(C)nc(NC(=O)NS(=O)(=O)c2ccccc2C(=O)O)n1 [metsulfuron]
Dry weight (as a % of the untreated plants) ([8]; metsulfuron 0.5x = 2.5 g ai/ha): 83.3% and 83.3^b %
Dry weight (as a % of the untreated plants) ([8]; metsulfuron 1x = 5 g ai/ha): 72.4^b %
Dry weight (as a % of the untreated plants) ([8]; metsulfuron 2x = 10 g ai/ha): 52.2^b %
Dry weight (as a % of the untreated plants) ([8]; metsulfuron 3x = 15 g ai/ha): 35.7^b %
Dry weight (as a % of the untreated plants) ([8]; metsulfuron 4x = 20 g ai/ha): 30.3% and 30.3^b %
Phytotoxicity Index ([8]; metsulfuron 2x = 10 g ai/ha): 4.3^c
Phytotoxicity Index ([8]; metsulfuron 3x = 15 g ai/ha): 7.2^b
Dry weight (as a % of the untreated plants) ([9]; metsulfuron 2x = 10 g ai/ha): 73.9^a %
Dry weight (as a % of the untreated plants) ([9]; metsulfuron 3x = 15 g ai/ha): 60.7^a %
Dry weight (as a % of the untreated plants) ([9]; metsulfuron 4x = 20 g ai/ha): 38.1^a %
Phytotoxicity Index ([9]; metsulfuron 0.5x = 2.5 g ai/ha): 0^c
Phytotoxicity Index ([9]; metsulfuron 1x = 5 g ai/ha): 0.6^d
Phytotoxicity Index ([9]; metsulfuron 2x = 10 g ai/ha): 1.1^d
Phytotoxicity Index ([9]; metsulfuron 3x = 15 g ai/ha): 2.8^c
Dry weight (as a % of the untreated plants) ([10]; metsulfuron 0.5x = 2.5 g ai/ha): 42^c %
Dry weight (as a % of the untreated plants) ([10]; metsulfuron 1x = 5 g ai/ha): 30.1^c %
Dry weight (as a % of the untreated plants) ([10]; metsulfuron 2x = 10 g ai/ha): 30.4^c %
Dry weight (as a % of the untreated plants) ([10]; metsulfuron 3x = 15 g ai/ha): 30^c %
Dry weight (as a % of the untreated plants) ([10]; metsulfuron 4x = 20 g ai/ha): 30.2^b %
Phytotoxicity Index ([10]; metsulfuron 0.5x = 2.5 g ai/ha): 3.3^b
Phytotoxicity Index ([10]; metsulfuron 1x = 5 g ai/ha): 5.2^b
Phytotoxicity Index ([10]; metsulfuron 3x = 15 g ai/ha): 9^a
Phytotoxicity Index ([10]; metsulfuron 4x = 20 g ai/ha): 9^a
Dry weight (as a % of the untreated plants) ([11]; metsulfuron 0.5x = 2.5 g ai/ha): 23.7^d %
Dry weight (as a % of the untreated plants) ([11]; metsulfuron 1x = 5 g ai/ha): 20^d %
Dry weight (as a % of the untreated plants) ([11]; metsulfuron 2x = 10 g ai/ha): 19.4^d %
Dry weight (as a % of the untreated plants) ([11]; metsulfuron 3x = 15 g ai/ha): 19.2^d %
Dry weight (as a % of the untreated plants) ([11]; metsulfuron 4x = 20 g ai/ha): 19.4^c %
Phytotoxicity Index ([11]; metsulfuron 0.5x = 2.5 g ai/ha): 9^a
Phytotoxicity Index ([11]; metsulfuron 1x = 5 g ai/ha): 9^a
Phytotoxicity Index ([11]; metsulfuron 2x = 10 g ai/ha): 9^a
Phytotoxicity Index ([11]; metsulfuron 3x = 15 g ai/ha): 9^a
Phytotoxicity Index ([11]; metsulfuron 4x = 20 g ai/ha): 9^a
